A word on the pIC50: it is −log10 of the IC50, conventionally taken in molar units.

pIC50: −log10 of the molar value.

1 compound from ChEMBL document CHEMBL3639125, “1,4-oxazepines as BACE1 and/or BACE2 inhibitors” (2014) can be followed below.

The target in one experiment is T1, Beta-secretase 2 (Homo sapiens, UniProt Q9Y5Z0).
T1 sequence (Q9Y5Z0 whole entry): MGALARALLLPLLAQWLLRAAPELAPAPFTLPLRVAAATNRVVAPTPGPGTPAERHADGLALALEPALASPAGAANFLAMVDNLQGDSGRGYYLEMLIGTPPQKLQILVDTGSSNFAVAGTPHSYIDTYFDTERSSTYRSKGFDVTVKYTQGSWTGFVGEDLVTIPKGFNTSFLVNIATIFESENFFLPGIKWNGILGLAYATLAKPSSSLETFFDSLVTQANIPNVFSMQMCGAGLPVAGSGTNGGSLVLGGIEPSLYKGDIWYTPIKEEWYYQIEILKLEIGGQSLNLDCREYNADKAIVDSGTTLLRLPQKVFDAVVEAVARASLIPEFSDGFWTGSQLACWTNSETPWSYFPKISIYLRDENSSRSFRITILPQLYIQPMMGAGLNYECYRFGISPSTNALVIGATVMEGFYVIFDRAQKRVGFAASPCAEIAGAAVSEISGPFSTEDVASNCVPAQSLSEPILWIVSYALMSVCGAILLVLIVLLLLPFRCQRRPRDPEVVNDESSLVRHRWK
Put plainly: In summary, a peptide is designed that is cleaved by the protease. The peptide is labelled with dabcyl at the N terminus and Lucifer Yellow at the C-terminus, such that for an intact peptide the Lucifer Yellow fluorescence is quenched by the dabcyl. When the peptide is cut by BACE2, the quenching is removed and a fluorescent signal is generated.

The target of the next experiment is Beta-secretase 1 (Homo sapiens, UniProt P56817). Kind of experiment: Immunofluorescence Resonance Energy Transfer (FRET) Assay: The FRET assay was performed essentially as described in Gruninger-Leitch et al., Journal of Biological Chemistry (2002) 277(7) 4687-93 (Substrate and inhibitor profile of BACE (beta-secretase) and comparison with other mammalian aspartic proteases). In summary, a peptide is designed that is cleaved by the protease. The peptide is labelled with dabcyl at the N terminus and Lucifer Yellow at the C-terminus, such that for an intact peptide the Lucifer Yellow fluorescence is quenched by the dabcyl. When the peptide is cut by BACE2, the quenching is removed and a fluorescent signal is generated. The assay was performed as described in Grueninger et al. 2002 at pH 4.5 using a substrate concentration of 5 μM. A FRET peptide based on the TMEM27 sequence was devised. dabcyl-QTLEFLKIPS-LucY (SEQ ID NO: 1). […] Conversely, BACE1 had insignificant activity against this peptide.
Chain of Beta-secretase 1 (P56817 whole entry): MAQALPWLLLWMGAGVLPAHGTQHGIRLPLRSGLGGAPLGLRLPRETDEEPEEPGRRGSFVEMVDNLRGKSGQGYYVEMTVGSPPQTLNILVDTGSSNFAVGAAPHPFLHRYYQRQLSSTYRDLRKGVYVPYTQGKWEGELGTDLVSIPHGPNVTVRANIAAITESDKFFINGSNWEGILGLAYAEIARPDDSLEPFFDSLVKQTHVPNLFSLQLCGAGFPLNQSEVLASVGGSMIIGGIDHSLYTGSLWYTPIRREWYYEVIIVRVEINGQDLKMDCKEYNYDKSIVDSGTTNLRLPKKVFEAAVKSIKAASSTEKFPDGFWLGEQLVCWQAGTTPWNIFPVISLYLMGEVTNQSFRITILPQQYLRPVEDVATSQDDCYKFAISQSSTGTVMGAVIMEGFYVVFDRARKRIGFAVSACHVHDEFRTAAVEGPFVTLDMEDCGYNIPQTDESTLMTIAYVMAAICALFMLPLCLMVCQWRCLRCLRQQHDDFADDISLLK

Regarding `CC1(C)OCC(N)=N[C@](C)(c2cc(Nc3cncc(C(F)(F)F)c3)ccc2F)C1(F)F`, the figures for the pIC50 against Beta-secretase 2 and at Beta-secretase 1 were 5.41 and 5.72, respectively.
